Marks after values point to notes of the source that are not given here.
Columns and labels:
[1] = system: sterol regulatory element-binding protein (SREBP)-1c; assay: Relative mRNA concentration in liver, lipogenesis: SREBP-1c; assay type: in vivo, Zucker rats; settings: liver of obese Zucker rats, diet 4 wk, obese control = 1.00, means ± SD (n = 12)
Method: (§1) All rats were kept individually in Macrolon cages in a room maintained at 22±1° C. and 50-60% relative humidity with lighting from 06.00 to 18.00 hours. All experimental procedures described followed established guidelines for the care and handling of laboratory animals and were approved by the local Animal Care and Use Committee.
(§2) Five different diets were used differing in their supplementation. […] Feed was administered ad libitum, and feed intake was recorded weekly. Experimental diets were fed for 4 weeks. Water was available ad libitum from nipple drinkers during the whole experiment.

[2] = system: liver-type carnitine-palmitoyltransferase (L-CPT) I; assay: Relative mRNA concentration in liver, fatty acid oxidation: L-CPT I; assay type: in vivo; settings: liver of obese Zucker rats, diet 4 wk, obese control = 1.00, means ± SD (n = 12)
Method: as §1, §2

[3] = system: stearoyl-CoA desaturase (SCD); assay: Relative mRNA concentration in liver, lipogenesis: SCD; assay type: in vivo; settings: liver of obese Zucker rats, diet 4 wk, obese control = 1.00, means ± SD (n = 12)
Method: as §1, §2

[4] = system: high molecular weight adiponectin; assay: High molecular weight adiponectin in plasma (rat ELISA); assay type: in vivo; settings: obese (fa/fa) Zucker rats, supplemented diet 4 wk, fasted, means ± SD (n = 12)
Method: (§3) A total of 60 male, 8-10 week old, obese (fa/fa) Zucker rats (Crl:ZUC-Leprfa; Charles River, France) with an initial body weight of 358±24 (mean±SD) g were randomly assigned to five groups of twelve rats each. In addition, 12 male, 8-10 week old, heterozygous lean (fa/+) Zucker rats with an initial body weight of 271±10 g were used as a lean control group. All rats were kept individually in Macrolon cages in a room maintained at 22±1° C. and 50-60% relative humidity with lighting from 06.00 to 18.00 hours. All experimental procedures described followed established guidelines for the care and handling of laboratory animals and were approved by the local Animal Care and Use Committee.
(§4) The rats were fed semi-purified diets which were composed according to the recommendations of the American Institute of Nutrition (AIN)-93G. Five different diets were used differing in their supplementation. […] Diets were prepared by mixing the dry components and subsequent pelleting with a standard pelleting device (Kahl Laborpressanlage Typ 14-175; Reinbek, Germany). Feed was administered ad libitum, and feed intake was recorded weekly. Experimental diets were fed for 4 weeks. Water was available ad libitum from nipple drinkers during the whole experiment.
(§5) The rats were decapitated under CO2 anesthesia in the fasted state. Whole blood was collected into EDTA polyethylene tubes (Sarstedt, Nürnbrecht, Germany). Plasma was separated from whole blood by centrifugation (1,100×g; 10 min) at 4° C. Lipoproteins [VLDL, LDL and high-density lipoproteins (HDL)] were separated by step-wise ultracentrifugation (900,000×g, 1.5 h, 4° C.; Mikro-Ultrazentrifuge, Sorvall Products, Bad Homburg, Germany). All samples were stored at −20° C. pending analysis.
(§6) Concentrations of leptin in plasma was determined by rat ELISA kits from BioVendor (Heidelberg, Germany). Concentration of high molecular weight adiponectin was determined by a rat ELISA kit from Shibayagi (Ishihara, Shibukawa, Gunma, Japan).

[5] = Fasting glucose concentration in plasma; assay type: in vivo, Zucker rats; settings: obese (fa/fa) Zucker rats, supplemented diet 4 wk, fasted, means ± SD (n = 12)
Method: as §3, §4, §5
Glucose concentration in plasma was determined by an enzymatic reagent kit from Analyticon Biotechnologies (Lichtenfels, Germany).

acyl-CoA oxidase (ACO) = assay: Relative mRNA concentration in liver, fatty acid oxidation: ACO; assay type: in vivo; settings: liver of obese Zucker rats, diet 4 wk, obese control = 1.00, means ± SD (n = 12)
Method: as §1, §2

[6] = system: fatty acid synthase (FAS); assay: Relative mRNA concentration in liver, lipogenesis: FAS; assay type: in vivo, Zucker rats; settings: liver of obese Zucker rats, diet 4 wk, obese control = 1.00, means ± SD (n = 12)
Method: as §1, §2

lipoprotein lipase (LPL) = assay: Relative mRNA concentration in liver, fatty acid uptake: LPL; assay type: in vivo; settings: liver of obese Zucker rats, diet 4 wk, obese control = 1.00, means ± SD (n = 12)
Method: as §1, §2

[7] = Plasma and lipoprotein lipid concentrations (triacylglycerol, cholesterol; enzymatic kits); assay type: in vivo, Zucker rats; settings: obese (fa/fa) Zucker rats, supplemented diet 4 wk, fasted, means ± SD (n = 12)
Method: as §3, §4, §5
Triacylglycerol and cholesterol concentrations in plasma and lipoproteins were determined using enzymatic reagent kits from Biocon (Vöhl-Marienhagen, Germany).

scavenger receptor CD36 = assay: Relative mRNA concentration in liver, fatty acid uptake: CD36; assay type: in vivo; settings: liver of obese Zucker rats, diet 4 wk, obese control = 1.00, means ± SD (n = 12)
Method: as §1, §2

[8] = Non-esterified fatty acids (NEFA) in plasma; assay type: in vivo, Zucker rats; settings: obese (fa/fa) Zucker rats, supplemented diet 4 wk, fasted, means ± SD (n = 12)
Method: as §3, §4, §5
NEFA concentrations in plasma were determined using the NEFA kit from Wako Chemicals (Neuss, Germany).

[9] = Feed intake, body weight development and feed conversion ratio of Zucker rats fed supplemented diets; assay type: in vivo; settings: obese (fa/fa) Zucker rats, supplemented diet fed 4 wk, means ± SD (n = 12)
From the text: Zucker rats are an established model of human early-onset, hyperplastic-hypertrophic obesity and insulin resistance as well as human non-insulin dependent diabetes mellitus.
as §3, §4

[10] = system: fatty acid transport protein (FATP); assay: Relative mRNA concentration in liver, fatty acid uptake: FATP; assay type: in vivo; settings: liver of obese Zucker rats, diet 4 wk, obese control = 1.00, means ± SD (n = 12)
Method: as §1, §2

[11] = system: fatty acid binding protein (FABP); assay: Relative mRNA concentration in liver, fatty acid uptake: FABP; assay type: in vivo, Zucker rats; settings: liver of obese Zucker rats, diet 4 wk, obese control = 1.00, means ± SD (n = 12)
Method: as §1, §2

[12] = Organ weights of the rats; assay type: in vivo; settings: obese (fa/fa) Zucker rats, supplemented diet fed 4 wk, means ± SD (n = 12)
Method: as §1, §2

leptin = assay: Leptin in plasma (rat ELISA); assay type: in vivo, Zucker rats; settings: obese (fa/fa) Zucker rats, supplemented diet 4 wk, fasted, means ± SD (n = 12)
Method: as §3, §4, §5, §6

With `CC/C=C\C/C=C\C/C=C\C/C=C\C/C=C\C/C=C\CCC(=O)O` [DHA, docosahexaenoic acid] the “Relative mRNA concentration, SREBP-1c” value [1] was 0.81 ± 0.32 ^ab, the “Relative mRNA concentration, L-CPT I” value [2] was 1.31 ± 0.69 and the “Relative mRNA concentration, SCD” value [3] was 1.01 ± 0.45 ^a. The Adiponectin in plasma [4] was 120 ± 22 ng/mL, the Glucose in plasma [5] was 7.99 ± 0.77 ^ab mmol/L and the “Relative mRNA concentration, ACO” value (acyl-CoA oxidase (ACO)) was 1.27 ± 0.35. The “Relative mRNA concentration, FAS” value [6] was 0.71 ± 0.55 ^ab, the “Relative mRNA concentration, LPL” value (lipoprotein lipase (LPL)) was 1.26 ± 0.36 and the “Cholesterol, HDL” value [7] was 4.51 ± 0.45 ^a mmol/L. For the same molecule, the “Cholesterol, Plasma” value [7] was 8.30 ± 1.00 ^a mmol/L, the “Cholesterol, VLDL + LDL” value [7] was 3.62 ± 0.53 ^a mmol/L and the “Triacylglycerols, Plasma” value [7] was 4.73 ± 0.98 ^bc mmol/L. For the same molecule, the “Triacylglycerols, VLDL + LDL” value [7] was 2.81 ± 0.52 ^b mmol/L, the “Relative mRNA concentration, CD36” value (scavenger receptor CD36) was 0.91 ± 0.38 ^a and the NEFA in plasma [8] was 2.42 ± 0.53 ^b mmol/L. The “Daily body weight gain” value [9] was 5.14 ± 0.60 ^a g, the Feed conversion ratio [9] was 5.01 ± 0.28 ^c g/g and the Feed intake [9] was 25.7 ± 2.9 ^ab g/d. The Final body weight [9] was 505 ± 34 ^a g, the “Total body weight gain” value [9] was 146 ± 17 ^a g and the “Relative mRNA concentration, FATP” value [10] was 1.07 ± 0.90. The “Relative mRNA concentration, FABP” value [11] was 0.99 ± 0.19 ^a, the “Absolute organ weights: Heart” value [12] was 1.36 ± 0.13 g and the “Absolute organ weights: Kidney” value [12] was 2.59 ± 0.38 g. The “Absolute organ weights: Liver” value [12] was 24.7 ± 3.7 ^a g, the “Relative organ weights: Heart” value [12] was 2.70 ± 0.21 ^b mg/g body weight and the “Relative organ weights: Kidney” value [12] was 5.16 ± 0.91 mg/g body weight. The “Relative organ weights: Liver” value [12] was 48.6 ± 4.9 ^a mg/g body weight and the Leptin in plasma (leptin) was 7.27 ± 1.09 ^a ng/mL.

Reference: US20120148685A1, “METHODS AND COMPOSITIONS FOR TREATING INSULIN RESISTANCE, DIABETES MELLITUS TYPE 2, METABOLIC SYNDROME AND RELATED DISORDERS” (Engergy4Life AG, priority 2009, published 2012)
